Read-outs that look alike come from different tables or passages of the source.
What was measured:
[1] = test system: somatostatin receptor proteins (58-kDa, 42-kDa, 27-kDa); details: background; AtT-20 and GH3 cells; cited from earlier work
[2] = test system: 58 to 60-kDa somatostatin receptor protein; details: background; rat brain and AtT-20 cells; cited from earlier work
[3] = test system: growth hormone, insulin, glucagon, gastric acid and pancreatic exocrine secretion; details: background, Brazeau et al., 1973, Wass, 1989, cited from earlier work
hGPR81 (SSTR1) [4] = target: T1, hGPR81 (SSTR1) (Homo sapiens, UniProt P30872); assay: Changes in basal or stimulated cAMP levels in oocytes injected with hGPR81 RNA; format: cell-based; details: laevis oocytes injected with in vitro transcribed RNA
T1 construct: in vitro transcribed RNA injected into Xenopus laevis oocytes
Experimental: (§1) Since the presence of a short cytoplasmic loop connecting transmembrane segments M5-M6 is a feature of G protein-coupled receptors that bind peptide hormones and neuropeptides (E. M. Ross, 1990), peptides known to regulate hormone secretion from pancreatic islets were tested as ligands for hGPR81. Initial attempts to identify the ligand for hGPR81 by injecting RNA transcribed in vitro into fenopus laevis oocytes (Kayano et al., 1990) and assessing changes in basal or stimulated cAMP levels in response to […] [calcitonin-gene-related peptide, gastric inhibitory polypeptide, glucagon, glucagon-like peptide 1-(7-36 amide), and vasoactive intestinal peptide], or Ca^2+ efflux (Williams et al., 1988) (angiotensin II, bombesin, cholecystokinin, and vasopressin) were unsuccessful. The binding of radiolabeled peptides (galanin, glucagon and somatostatin) to COS-7 cells transiently expressing hGPR81 was attempted, as well.

hGPR81 (SSTR1) [5] = target: T1, hGPR81 (SSTR1); assay: Ca^2+ efflux in oocytes injected with hGPR81 RNA; format: cell-based; details: laevis oocytes injected with in vitro transcribed RNA
Experimental: as §1

T1 sequence (P30872 whole entry): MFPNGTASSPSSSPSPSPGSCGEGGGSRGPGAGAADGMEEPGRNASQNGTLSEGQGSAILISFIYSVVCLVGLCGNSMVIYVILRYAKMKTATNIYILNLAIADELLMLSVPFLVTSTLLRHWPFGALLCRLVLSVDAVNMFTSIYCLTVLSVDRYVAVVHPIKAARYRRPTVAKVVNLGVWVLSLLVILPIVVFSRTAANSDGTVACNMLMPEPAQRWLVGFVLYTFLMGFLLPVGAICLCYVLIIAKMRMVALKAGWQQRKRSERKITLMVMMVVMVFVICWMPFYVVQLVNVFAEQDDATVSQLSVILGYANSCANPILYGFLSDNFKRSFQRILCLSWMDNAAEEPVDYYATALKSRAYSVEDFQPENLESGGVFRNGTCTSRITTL

Nc1nc2c(ncn2[C@@H]2O[C@H](COP(=O)(O)OP(=O)(O)OP(=O)(O)O)[C@@H](O)[C@H]2O)c(=O)[nH]1 [GTP]
inhibition of labeling of somatostatin receptor proteins [1]: sensitive to inhibition

somatostatin-28: bioactive form of somatostatin derived via tissue-specific proteolytic processing of prosomatostatin (Bachem)
binding to 58 to 60-kDa receptor protein [2]: high affinity and specificity | inhibition of secretion [3]: more specific inhibitor of growth hormone, insulin and pancreatic exocrine secretion

vasoactive intestinal peptide: peptide known to regulate hormone secretion from pancreatic islets
identification as ligand for hGPR81 by changes in basal or stimulated cAMP levels (hGPR81 (SSTR1) [4]): unsuccessful

glucagon: peptide known to regulate hormone secretion from pancreatic islets
identification as ligand for hGPR81 by changes in basal or stimulated cAMP levels (hGPR81 (SSTR1) [4]): unsuccessful

calcitonin-gene-related peptide
identification as ligand for hGPR81 by changes in basal or stimulated cAMP levels (hGPR81 (SSTR1) [4]): unsuccessful

NC(=O)CC[C@@H]1NC(=O)[C@H](Cc2ccccc2)NC(=O)[C@H](Cc2ccc(O)cc2)NC(=O)[C@@H](N)CSSC[C@@H](C(=O)N2CCC[C@H]2C(=O)N[C@@H](CCCN=C(N)N)C(=O)NCC(N)=O)NC(=O)[C@H](CC(N)=O)NC1=O [vasopressin]
identification as ligand for hGPR81 by Ca^2+ efflux (hGPR81 (SSTR1) [5]): unsuccessful

bombesin
identification as ligand for hGPR81 by Ca^2+ efflux (hGPR81 (SSTR1) [5]): unsuccessful

glucagon-like peptide 1-(7-36 amide)
identification as ligand for hGPR81 by changes in basal or stimulated cAMP levels (hGPR81 (SSTR1) [4]): unsuccessful

angiotensin II: peptide known to regulate hormone secretion from pancreatic islets (DRVYIHPF)
identification as ligand for hGPR81 by Ca^2+ efflux (hGPR81 (SSTR1) [5]): unsuccessful

somatostatin-14
binding to 58 to 60-kDa receptor protein [2]: high affinity and specificity | inhibition of secretion [3]: relatively more selective for inhibition of glucagon and gastric acid secretion | inhibition of secretion ([3]; listed as Somatostatin): potent inhibitor of growth hormone secretion | inhibition of labeling of somatostatin receptor proteins [1]: sensitive to inhibition

gastric inhibitory polypeptide: peptide known to regulate hormone secretion from pancreatic islets
identification as ligand for hGPR81 by changes in basal or stimulated cAMP levels (hGPR81 (SSTR1) [4]): unsuccessful

— patent publication US5723299A, “Somatostatin receptors” (Arch Development Corporation, priority 1995, dated 1998)
